This is an account of results in patent US11845752B2, “Substituted imidazo[1,5-a]pyrazines for the treatment of hepatitis B” (ALIGOS THERAPEUTICS, INC., priority 2020, dated 2023).

Structures are written as SMILES.

For this test, the system named is HBV. Kind of test: HBV-DNA antiviral assay using HepG2.117 cells (intracellular HBV DNA by qPCR). In kind it is cell-based, HBV genotype D. The conditions noted are these: Hepatitis B virus, HepG2.117, 72 h, HBV DNA inhibition, 3 days incubation, read-out: EC50. On the procedure:
The following assay procedure describes the HBV antiviral assay, using HepG2.117 cells, which carry a stably integrated genotype D HBV genome under the control of a Tet-off promoter, and intracellular HBV DNA quantification as endpoint. Cell viability is assessed in parallel by measuring the intracellular ATP content using ATPlite (Perkin Elmer).
On day 0, HepG2.117 cells (which are maintained in routine cell culture with doxycycline present in the medium at a final concentration of 1 μg/mL) were seeded in 96-well plates (white with clear bottom) at a density of 2.0×10^4 cells/well (0.1 mL/well) in medium without doxycycline to induce pgRNA transcription and subsequent formation of HBV particles. The cells were incubated at 37° C. and 5% CO2.
On day 1, medium was removed from each well, the test articles were diluted in culture medium without doxcycyline and 100 μL was added to cell culture wells (9 concentrations, 4-fold dilution). For each plate, 6 untreated (merely DMSO) wells were included. The final concentration of DMSO in the culture medium was 2%. Each plate was prepared in duplicate (one for HBV DNA extraction, one for ATPlite measurement). The cells were incubated at 37° C. and 5% CO2 for 3 days.
On day 4, cell viability was assessed using ATPlite and cell lysates were prepared for HBV DNA extraction and subsequent quantification by qPCR.
Medium was removed from each well and 100 μL of 0.33% NP-40 in H2O was added to each well. Plates were sealed, incubated at 4° C. for 5 mins, vortexed extensively and centrifuged briefly. Next, 35 μL of lysate was added to 65 μL QuickExtract DNA Extraction Solution (Epicentre) in a PCR plate for each well. PCR plate was incubated at 65° C. for 6 mins, 98° C. for 2 mins and finally cooled to 4° C. HBV DNA was then quantified by qPCR with HBV-specific primers and probes as specified in Table 1 using the Bio-Rad SSOAdvanced Universal Probes Supermix on a CFX96 machine (Bio-Rad). The PCR cycle program consisted of 95° C. for 3 mins, followed by 40 cycles at 95° C. for 10 sec and 60° C. for 30 sec.
A DNA standard was prepared by dilution of an IDT gBlock corresponding to the amplicon with concentrations ranging from 10^2 to 10^8 copies/input (i.e. per 4 μL) and used to generate a standard curve by plotting Cq values vs. HBV DNA standard concentration. The quantity of HBV DNA in each sample was determined by interpolating from the standard curve.
Cell viability was calculated as follows: % Cell viability=(luminescence value of test sample)/(average luminescence value of 2% DMSO control)×100%. HBV DNA inhibition was calculated as follows: 100−(HBV DNA copy number of test sample)/(average HBV DNA copy number of 2% DMSO control)×100%. No normalization to entecavir was required due to the excellent dynamic window of this assay. The CC50, EC50 and EC90 values were determined by dose-response curves fitted using non-linear regression.
For orientation: Real-time PCR tracks product formation cycle by cycle.

What is called EC50 is the concentration that produces a half-maximal response. As for `C[C@H]1Cn2c(c(C(=O)NCc3ccccc3-c3ccccn3)n(-c3ccc(OC[C@@H](O)C(F)(F)F)cc3)c2=O)CN1C(=O)c1ccc(Br)c(C(F)(F)F)c1` (mixture of isomers) [Compound 68b, (6SR)-7-[4-bromo-3-(trifluoromethyl)benzoyl]-6-methyl-3-oxo-N-[[2-(2-pyridyl)phenyl]methyl]-2-[4-[(2R)-3,3,3-trifluoro-2-hydroxy-propoxy]phenyl]-6,8-dihydro-5H-imidazo[1,5-a]pyrazine-1-carboxamide], the EC50 is less than 50 nM.

Consider `C[C@H]1Cn2c(c(C(=O)NCc3ccccc3-c3ccccn3)n(-c3ccc(OC[C@H](O)C(F)(F)F)cc3)c2=O)CN1C(=O)c1ccc(Br)c(C(F)(F)F)c1` (mixture of isomers) [Compound 69b, (6SR)-7-[4-bromo-3-(trifluoromethyl)benzoyl]-6-methyl-3-oxo-N-[[2-(2-pyridyl)phenyl]methyl]-2-[4-[(2S)-3,3,3-trifluoro-2-hydroxy-propoxy]phenyl]-6,8-dihydro-5H-imidazo[1,5-a]pyrazine-1-carboxamide], for which the EC50 was 50 to 500 nM. `C[C@@H]1Cn2c(c(C(=O)NCc3ccccc3-c3ncccn3)n(-c3ccc(OC[C@H](O)C(F)(F)F)cc3)c2=O)CN1C(=O)c1ccc(Br)c(C(F)(F)F)c1` (mixture of isomers) [Compound 75a, (6RS)-7-[4-bromo-3-(trifluoromethyl)benzoyl]-6-methyl-3-oxo-N-[(2-pyrimidin-2-ylphenyl)methyl]-2-[4-[(2S)-3,3,3-trifluoro-2-hydroxy-propoxy]phenyl]-6,8-dihydro-5H-imidazo[1,5-a]pyrazine-1-carboxamide]: the 50% effective concentration (EC50) was less than 50 nM. As for `C[C@H]1Cn2c(c(C(=O)NCc3ccccc3-c3ncccn3)n(-c3ccc(OC[C@H](O)C(F)(F)F)cc3)c2=O)CN1C(=O)c1ccc(Br)c(C(F)(F)F)c1` (mixture of isomers) [Compound 75b, (6SR)-7-[4-bromo-3-(trifluoromethyl)benzoyl]-6-methyl-3-oxo-N-[(2-pyrimidin-2-ylphenyl)methyl]-2-[4-[(2S)-3,3,3-trifluoro-2-hydroxy-propoxy]phenyl]-6,8-dihydro-5H-imidazo[1,5-a]pyrazine-1-carboxamide], the EC50 was in the range of 50 to 500 nM. On to `C[C@@H]1Cn2c(c(C(=O)NCc3ccccc3-c3ccncn3)n(-c3ccc(N4CCN(C)[C@H](C(F)(F)F)C4)cc3)c2=O)CN1C(=O)c1ccc(Br)c(C(F)(F)F)c1` (mixture of isomers) [Compound 87a, (6RS)-7-[4-bromo-3-(trifluoromethyl)benzoyl]-6-methyl-2-[4-[(3S)-4-methyl-3-(trifluoromethyl)piperazin-1-yl]phenyl]-3-oxo-N-[(2-pyrimidin-4-ylphenyl)methyl]-6,8-dihydro-5H-imidazo[1,5-a]pyrazine-1-carboxamide], for which the EC50 lay within 50 to 500 nM. Regarding `C[C@H]1Cn2c(c(C(=O)NCc3ccccc3-c3ccncn3)n(-c3ccc(N4CCN(C)[C@H](C(F)(F)F)C4)cc3)c2=O)CN1C(=O)c1ccc(Br)c(C(F)(F)F)c1` (mixture of isomers) [Compound 87b, (6SR)-7-[4-bromo-3-(trifluoromethyl)benzoyl]-6-methyl-2-[4-[(3S)-4-methyl-3-(trifluoromethyl)piperazin-1-yl]phenyl]-3-oxo-N-[(2-pyrimidin-4-ylphenyl)methyl]-6,8-dihydro-5H-imidazo[1,5-a]pyrazine-1-carboxamide], the EC50 is less than 50 nM. Then `C[C@H](O)Cn1ncc2cc(-n3c(C(=O)NCc4ccccc4-c4ncccn4)c4n(c3=O)C[C@@H](C)N(C(=O)c3ccc(Br)c(C(F)(F)F)c3)C4)ccc21` (mixture of isomers) [Compound 94a, (6RS)-7-[4-bromo-3-(trifluoromethyl)benzoyl]-2-[1-[(2S)-2-hydroxypropyl]indazol-5-yl]-6-methyl-3-oxo-N-[(2-pyrimidin-2-ylphenyl)methyl]-6,8-dihydro-5H-imidazo[1,5-a]pyrazine-1-carboxamide], with 50 to 500 nM; and `C[C@H](O)Cn1ncc2cc(-n3c(C(=O)NCc4ccccc4-c4ncccn4)c4n(c3=O)C[C@H](C)N(C(=O)c3ccc(Br)c(C(F)(F)F)c3)C4)ccc21` (mixture of isomers) [Compound 94b, (6SR)-7-[4-bromo-3-(trifluoromethyl)benzoyl]-2-[1-[(2S)-2-hydroxypropyl]indazol-5-yl]-6-methyl-3-oxo-N-[(2-pyrimidin-2-ylphenyl)methyl]-6,8-dihydro-5H-imidazo[1,5-a]pyrazine-1-carboxamide], with 50 to 500 nM; and `C[C@H]1Cn2c(c(C(=O)NCc3ccccc3-c3ncccn3)n(-c3ccc4c(cnn4C[C@@H](O)C(F)(F)F)c3)c2=O)CN1C(=O)c1ccc(Br)c(C(F)(F)F)c1` (mixture of isomers) [Compound 101b, (6SR)-7-[4-bromo-3-(trifluoromethyl)benzoyl]-6-methyl-3-oxo-N-[(2-pyrimidin-2-ylphenyl)methyl]-2-[1-[(2R)-3,3,3-trifluoro-2-hydroxy-propyl]indazol-5-yl]-6,8-dihydro-5H-imidazo[1,5-a]pyrazine-1-carboxamide], with less than 50 nM. For the compound `C[C@@H]1Cn2c(c(C(=O)NCc3ccccc3-c3ncccn3)n(-c3ccc4c(cnn4C[C@H](O)C(F)(F)F)c3)c2=O)CN1C(=O)c1ccc(Br)c(C(F)(F)F)c1` (mixture of isomers) [Compound 102a, (6RS)-7-[4-bromo-3-(trifluoromethyl)benzoyl]-6-methyl-3-oxo-N-[(2-pyrimidin-2-ylphenyl)methyl]-2-[1-[(2S)-3,3,3-trifluoro-2-hydroxy-propyl]indazol-5-yl]-6,8-dihydro-5H-imidazo[1,5-a]pyrazine-1-carboxamide], the EC50 lay in the range of 50 to 500 nM. The figure for `C[C@H]1Cn2c(c(C(=O)NCc3ccccc3-c3ncccn3)n(-c3ccc4c(cnn4C[C@H](O)C(F)(F)F)c3)c2=O)CN1C(=O)c1ccc(Br)c(C(F)(F)F)c1` (mixture of isomers) [Compound 102b, (6SR)-7-[4-bromo-3-(trifluoromethyl)benzoyl]-6-methyl-3-oxo-N-[(2-pyrimidin-2-ylphenyl)methyl]-2-[1-[(2S)-3,3,3-trifluoro-2-hydroxy-propyl]indazol-5-yl]-6,8-dihydro-5H-imidazo[1,5-a]pyrazine-1-carboxamide] is less than 50 nM; for `C[C@H]1Cn2c(c(C(=O)NCc3ccccc3-c3ncccn3)n(-c3ccc4nn(C[C@@H](O)C(F)(F)F)cc4c3)c2=O)CN1C(=O)c1ccc(Br)c(C(F)(F)F)c1` (mixture of isomers) [Compound 105b, (6SR)-7-[4-bromo-3-(trifluoromethyl)benzoyl]-6-methyl-3-oxo-N-[(2-pyrimidin-2-ylphenyl)methyl]-2-[2-[(2R)-3,3,3-trifluoro-2-hydroxy-propyl]indazol-5-yl]-6,8-dihydro-5H-imidazo[1,5-a]pyrazine-1-carboxamide] it is 50 to 500 nM; for `C[C@@H]1Cn2c(c(C(=O)NCc3ccccc3-c3ncccn3)n(-c3ccc4nn(C[C@H](O)C(F)(F)F)cc4c3)c2=O)CN1C(=O)c1ccc(Br)c(C(F)(F)F)c1` (mixture of isomers) [Compound 107a, (6RS)-7-[4-bromo-3-(trifluoromethyl)benzoyl]-6-methyl-3-oxo-N-[(2-pyrimidin-2-ylphenyl)methyl]-2-[2-[(2S)-3,3,3-trifluoro-2-hydroxy-propyl]indazol-5-yl]-6,8-dihydro-5H-imidazo[1,5-a]pyrazine-1-carboxamide] it is 50 to 500 nM.
